Test system: obese patients with NASH
Experiment: 48 week double blind, placebo controlled, randomized, parallel group study of INT131 on hepatic histology of obese patients with NASH
Format: in vivo, human
Details: subjects receiving either 1.25 or 2 mg of INT131 once per day
Source text: A 48 week double blind, placebo controlled, randomized, parallel group study will be conducted to evaluate the effect of INT131 on hepatic histology of obese patients with NASH. Specifically, at least 225 subjects are chosen that fit the following criteria: (1) age 18 to 75 years old; (2) body mass index (BMI) greater than 25 kg/m^2 and less than 40 kg/m^2; (3) NAFLD fibrosis score greater than or equal to 1.0 and less than 4.0; (4) average daily alcohol consumption of 10 g/day or less; (5) NAFLD activity score (“NAS”) of 3 or greater; (6) histologically proven steatohepatitis on a diagnostic liver biopsy performed within 6 months of randomization, confirmed central laboratory reading of slides (steatosis >5% lobular inflammation, any amount of ballooning); (7) women who meet the following criteria: women of childbearing potential with a negative urine pregnancy test at Screening who agree to use 1 or more approved methods of birth control during the study. Approved methods of birth control are: hormonal contraception, intrauterine device, diaphragm plus spermicide, female condom plus spermicide. […]

[1] = week 0 compared to week 48, statistically significant versus placebo group

In the case of O=S(=O)(Nc1cc(Cl)c(Oc2cnc3ccccc3c2)c(Cl)c1)c1ccc(Cl)cc1Cl [INT131, 2,4-Dichloro-N-[3,5-dichloro-4-(3-quinolinyloxy)phenyl]benzenesulfonamide], the “liver function test(s)” value is reported as “improvement”, the “most if not all other metabolic parameters outlined above” value is reported as “improvement” and the “NAS (NAFLD activity score)” value [1] is reported as “reduction”. For the same molecule, the ballooning grade [1] was “reduction”, the fibrosis stage [1] was “reduction” and the “portal and lobular inflammation grade” value [1] was “reduction”. The steatosis grade [1] was “reduction”.

From patent US11400072B2, “Methods for the treatment of nonalcoholic fatty liver disease and/or lipodystrophy” (Coherus Biosciences, Inc., priority 2015, dated 2022)
